Consider 3 compounds from patent publication US12637499B2, “Adrenomedullin analog, method for producing the same, and pharmaceutical use thereof” (priority 2020, dated 2026).

In general, amount remaining refers to what is left of the initial amount, in per cent. For orientation: AUC means concentration integrated over time. One may read the Cmax as the maximum level reached in the sampled fluid or tissue. For orientation: half-life means how long it takes for the measured level to halve. Read a low half-life as fast loss. As usually defined, the EC50 is the concentration that produces a half-maximal response. A high value points to a less potent agent.

For series [1] the following is noted: 50 nmol/kg subcutaneous, Experiment VI.
Procedure: (§1) Eight-week-old male Wistar rats were purchased from Charles River Laboratories Japan, Inc. The rats were grown with normal feeds in the absence of specific pathogens under cycles of a 12-hour light period and a 12-hour dark period. […] To determine plasma AM concentrations, 50 nmol/kg of AM or an AM analog was subcutaneously administered. A peripheral blood sample was collected from the tail vein into a test tube (containing 21 μg of aprotinin and 0.3 mg of EDTA-2Na) at predetermined times (0, 15, 30, 60, and 120 minutes after administration). The test tube was centrifuged at 1,700×g to afford plasma.
Series [2] in a line: in vitro. To be noted: for change in amount with the lapse of reaction time in reaction mixture with serum: Experiment IV, up to 240 minutes; for remaining at 4 h: serum, pH 7.1. Here is the method: After the lapse of a predetermined time, a 30-μl portion was taken out of the reaction solution, transferred into 170 μl of 0.1% aqueous solution of trifluoroacetic acid (TFA), and stored at −80° C. until analysis.
Quantitative analysis was performed for AM contained in the thus-obtained samples of a reaction mixture with serum or plasma by using specific fluoroimmunoassay (Tosoh Corporation) with two antibodies differing in their recognition sites. […] In the figure, the abscissa represents reaction time (min), and the ordinate represents concentration of AM (UM).
In the figure, the abscissa represents reaction time (min), and the ordinate represents concentration of AM or an AM analog (μM).
In the figure, the abscissa represents the type of AM or an AM analog, and the ordinate represents residual rates of AM or an AM analog (%).

The nature of series [3]: in vivo. To be noted: male, Wistar, rat, sc, 50 nmol/kg; for AUC: in vivo; for Cmax / half-life: plasma.
Procedure: as §1
A short description of series [4]: in vitro. Particulars: Experiment VIII; 10^−7 M, 37° C.; 4 hours after the beginning of reaction. The protocol:
The stabilities of the AM analog peptides in serum were evaluated with the same procedure as in Experiment I except the following procedure. […] A reaction mixture containing 4 μL of phosphate buffer, 20 μL of human serum (Sigma-Aldrich Co. LLC, USA), and 14 μL of water was prepared. To the reaction mixture, 2 μL of AM or an AM analog peptide (2×10^−6 M, final concentration: 10^−7 M) was added, and reaction was initiated at 37° C. The reaction was terminated by addition of 160 μL of ELISA buffer to the reaction mixture 0, 1, or 4 hours after the beginning of reaction. […] In the figure, the abscissa represents reaction time (hr), and the ordinate represents concentration in serum of AM or an AM analog (%) represented as relative values to concentration of AM or an AM analog at the beginning of reaction (i.e., 0 hours after the beginning of reaction).

Series [5] has as its target T1, AM type 1 receptor (AMI receptor) (Homo sapiens, UniProt O60895+Q16602).
T1 construct: expressed in transfected cells; medium contains hygromycin B and Geneticin
Kind of series: Intracellular cAMP production in HEK293 cells stably expressing AM type 1 receptor (Experiments V and IX). The class given is cell-based. An excerpt:
The adrenomedullin activity exerted by AM, shown above with examples, will be exerted via increased concentration of intracellular cAMP in normal cases. Thus, the increased concentration of intracellular cAMP can be considered as an index of the adrenomedullin activity of the compound according to the aspect. In each aspect of the invention, the effect of increasing concentration of intracellular cAMP can be evaluated, for example, by adding a target compound to a cultured cell line (HEK293 cell line) caused to stably express an AM type 1 receptor (AMI receptor) and measuring the amount of intracellular cAMP produced.
The physiological effect of AM is known to be exerted via increase in the concentration of intracellular cAMP (see Kitamura K et al., Biochem Biophys Res Commun, 30 Apr. 1993, Volume 192, Issue 2, pp. 553-560). Accordingly, each AM analog was added to a cultured cell line (HEK293 cell line) caused to stably express an AM type 1 receptor (AMI receptor), and the amount of intracellular cAMP produced was measured. HEK293 cells were cultured in Dulbecco's modified Eagle's medium (with 10% fetal bovine serum, 100 U/ml penicillin G, […] streptomycin, 0.25 mg/ml amphotericin B, […] hygromycin B, and […] Geneticin) in a fibronectin-coated 24-well plate (Thermo Fisher Scientific) (under 37° C., humidified, 5% CO2 conditions). After culturing for 3 days, 90%-confluent cells with accumulation of intracellular cAMP stimulated were subjected to experiment. The medium was exchanged with Hanks's balanced salt solution containing 20 mM 4-(2-hydroxyethyl)-1-piperazineethanesulfonic acid and 0.1% bovine serum albumin, AM or an AM analog was added to the cells in the presence of 0.5 mM isobutylmethylxanthine (IBMX), and the cells were incubated at 37° C. for 15 minutes. The reaction was terminated by addition of cell lysis buffer. Then, the amount of intracellular cAMP produced in the HEK293 cells of each well was measured using an ELISA kit for cAMP measurement (GE Healthcare Japan Corp., #RPN2251). […] In the figure, the abscissa represents logarithms of concentration of AM or an AM analog added (M), and the ordinate represents amounts of intracellular cAMP produced in HEK293 cells stably expressing an AMI receptor (fmol/well).
In the figure, the abscissa represents logarithms of concentration of AM or an AM analog added (M), and the ordinate represents amounts of intracellular cAMP produced in HEK293 cells stably expressing an AMI receptor (fmol/ml).
For orientation: cAMP levels reflect the balance of adenylyl cyclase and phosphodiesterase activity.

Series [6] in a line: in vivo. The protocol:
Seven-week-old male Wistar rats were prepared, and grown with normal feeds. To determine plasma AM concentrations, 50 nmol/kg of AM or an AM analog was subcutaneously administered. A peripheral blood sample was collected from the tail vein into a Kantan tube® (containing heparin Na, Eiken Chemical Co., Ltd., Tochigi, Japan) at predetermined times (0, 15, 30, 60, and 120 minutes after administration). The tube was centrifuged at 2,000×g. Plasma was collected from the tube, and transferred into a test tube (containing 21 μg of aprotinin and 0.3 mg of EDTA-2Na) and stored. […] In the figure, the abscissa represents elapsed time after subcutaneous administration (hr), and the ordinate represents concentration in plasma of AM or an AM analog (pM). In addition, maximum concentrations in blood (Cmax) of AM or the AM analogs in rat plasma after subcutaneous administration were calculated.

Where two headings read alike, the source gives them in different places. Where a SMILES comes first, the peptide text is derived from it. Bridges are numbered along the chain shown (N, C = ends).

T1 sequence (Q16602 23-461): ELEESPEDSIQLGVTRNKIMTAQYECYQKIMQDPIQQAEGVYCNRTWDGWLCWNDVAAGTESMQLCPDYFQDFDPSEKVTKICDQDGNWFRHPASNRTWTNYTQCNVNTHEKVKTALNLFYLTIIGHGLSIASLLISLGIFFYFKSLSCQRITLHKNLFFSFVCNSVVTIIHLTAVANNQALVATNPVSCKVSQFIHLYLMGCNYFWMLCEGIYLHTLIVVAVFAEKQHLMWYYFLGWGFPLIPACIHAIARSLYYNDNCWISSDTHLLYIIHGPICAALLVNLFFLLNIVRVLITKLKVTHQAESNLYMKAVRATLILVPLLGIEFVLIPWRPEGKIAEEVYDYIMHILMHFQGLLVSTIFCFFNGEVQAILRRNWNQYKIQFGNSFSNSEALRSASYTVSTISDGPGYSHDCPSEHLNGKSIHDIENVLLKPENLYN
T1 sequence (O60895 43-175): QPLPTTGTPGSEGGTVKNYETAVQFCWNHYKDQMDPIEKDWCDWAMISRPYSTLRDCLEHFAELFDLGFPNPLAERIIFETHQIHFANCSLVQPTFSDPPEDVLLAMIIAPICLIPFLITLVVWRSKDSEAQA

In the case of `CC[C@H](C)[C@H](NC(=O)[C@H](CCC(N)=O)NC(=O)[C@H](Cc1c[nH]cn1)NC(=O)[C@H](C)NC(=O)[C@H](CC(C)C)NC(=O)[C@H](CCCCN)NC(=O)[C@H](CCC(N)=O)NC(=O)[C@@H](NC(=O)[C@@H](NC(=O)[C@@H]1CSSC[C@H](NC(=O)CNC(=O)[C@H](Cc2ccccc2)NC(=O)[C@@H](N)CO)C(=O)N[C@@H](CCCNC(=N)N)C(=O)N[C@@H](Cc2ccccc2)C(=O)NCC(=O)N[C@@H]([C@@H](C)O)C(=O)N1)[C@@H](C)O)C(C)C)C(=O)N[C@@H](Cc1ccc(O)cc1)C(=O)N[C@@H](CCC(N)=O)C(=O)N[C@@H](Cc1ccccc1)C(=O)N[C@H](C(=O)N[C@@H](CC(=O)O)C(=O)N[C@@H](CCCCN)C(=O)N[C@@H](CC(=O)O)C(=O)N[C@@H](CCCCN)C(=O)N[C@@H](CC(=O)O)C(=O)N[C@@H](CC(N)=O)C(=O)N[C@H](C(=O)N[C@@H](C)C(=O)N1CCC[C@H]1C(=O)N[C@H](CCCNC(=N)N)C(=O)N[C@@H](CO)C(=O)N[C@@H](CCCCN)C(=O)N[C@H](C(=O)N[C@@H](CO)C(=O)N1CCC[C@H]1C(=O)N[C@@H](CCC(N)=O)C(=O)NCC(=O)N[C@@H](Cc1ccc(O)cc1)C(N)=O)[C@@H](C)CC)C(C)C)[C@@H](C)O` (relative stereo) [[D-Arg-44]hAM(13-52), SFGCRFGTCTVQKLAHQIYQFTDKDKDNVAP-*R-S-K-I-S-P-Q-G-Y-CONH2], the “detection in rat plasma after subcutaneous administration” value (shortened to “detection in rat plasma”) in series [1] is reported as “detected in rat plasma 15 minutes after administration”. In addition, in the series “in vitro [2]”, the “change in amount with the lapse of reaction time in reaction mixture with serum” value is “almost no decrease or only slight decrease in amount” and the fraction remaining at 4 h came to 81.9%. In addition, in “in vivo [3]”, the AUC was determined as 0.0591 nM·h, the highest level (Cmax) was 0.111 nM and the half-life was 1.27 h.
With `CC[C@H](C)[C@H](NC(=O)[C@H](CCC(N)=O)NC(=O)[C@H](Cc1c[nH]cn1)NC(=O)[C@H](C)NC(=O)[C@H](CC(C)C)NC(=O)[C@H](CCCCN)NC(=O)[C@H](CCC(N)=O)NC(=O)[C@@H](NC(=O)[C@@H](NC(=O)[C@@H]1CSSC[C@H](NC(=O)CNC(=O)[C@H](Cc2ccccc2)NC(=O)[C@@H](N)CO)C(=O)N[C@@H](CCCNC(=N)N)C(=O)N[C@@H](Cc2ccccc2)C(=O)NCC(=O)N[C@@H]([C@@H](C)O)C(=O)N1)[C@@H](C)O)C(C)C)C(=O)N[C@@H](Cc1ccc(O)cc1)C(=O)N[C@@H](CCC(N)=O)C(=O)N[C@@H](Cc1ccccc1)C(=O)N[C@H](C(=O)N[C@@H](CC(=O)O)C(=O)N[C@@H](CCCCN)C(=O)N[C@@H](CC(=O)O)C(=O)N[C@@H](CCCCN)C(=O)N[C@@H](CC(=O)O)C(=O)N[C@@H](CC(N)=O)C(=O)N[C@H](C(=O)N[C@@H](C)C(=O)N1CCC[C@H]1C(=O)N[C@@H](CCCCN)C(=O)N[C@@H](CO)C(=O)N[C@@H](CCCCN)C(=O)N[C@H](C(=O)N[C@@H](CO)C(=O)N1CCC[C@H]1C(=O)N[C@@H](CCC(N)=O)C(=O)NCC(=O)N[C@@H](Cc1ccc(O)cc1)C(N)=O)[C@@H](C)CC)C(C)C)[C@@H](C)O` [[Lys-44]hAM(13-52), SFGCRFGTCTVQKLAHQIYQFTDKDKDNVAPKSKISPQGY-CONH2] (H-SFGCRFGTCTVQKLAHQIYQFTDKDKDNVAPKSKISPQGY-NH2; disulfide 4-9), the “detection in rat plasma” value in series [1] is “detected in rat plasma 15 minutes after administration”. Moreover, in “in vitro [2]”, the “change in amount with the lapse of reaction time in reaction mixture with serum” value is reported as “almost no decrease or only slight decrease in amount” and the fraction remaining at 4 h was determined as 51.8%. Also, in the series “in vivo [3]”, the AUC amounted to 0.227 nM·h, the Cmax was 0.396 nM and the half-life is 1.47 h.
In the case of `CC[C@H](C)[C@H](NC(=O)[C@H](CCC(N)=O)NC(=O)[C@H](Cc1c[nH]cn1)NC(=O)[C@H](C)NC(=O)[C@H](CC(C)C)NC(=O)[C@H](CCCCN)NC(=O)[C@H](CCC(N)=O)NC(=O)[C@@H](NC(=O)[C@@H](NC(=O)[C@@H]1CSSC[C@H](NC(=O)CNC(=O)[C@H](Cc2ccccc2)NC(=O)[C@@H](N)CO)C(=O)N[C@@H](CCCNC(=N)N)C(=O)N[C@@H](Cc2ccccc2)C(=O)NCC(=O)N[C@@H]([C@@H](C)O)C(=O)N1)[C@@H](C)O)C(C)C)C(=O)N[C@@H](Cc1ccc(O)cc1)C(=O)N[C@@H](CCC(N)=O)C(=O)N[C@@H](Cc1ccccc1)C(=O)N[C@H](C(=O)N[C@@H](CC(=O)O)C(=O)N[C@@H](CCCCN)C(=O)N[C@@H](CC(=O)O)C(=O)N[C@@H](CCCCN)C(=O)N[C@@H](CC(=O)O)C(=O)N[C@@H](CC(N)=O)C(=O)N[C@H](C(=O)N[C@@H](C)C(=O)N1CCC[C@H]1C(=O)N[C@@H](CO)C(=O)N[C@@H](CCCCN)C(=O)N[C@H](C(=O)N[C@@H](CO)C(=O)N1CCC[C@H]1C(=O)N[C@@H](CCC(N)=O)C(=O)NCC(=O)N[C@@H](Cc1ccc(O)cc1)C(N)=O)[C@@H](C)CC)C(C)C)[C@@H](C)O` [[des-Arg-44]hAM(13-52), SFGCRFGTCTVQKLAHQIYQFTDKDKDNVAPSKISPQGY-CONH2] (H-SFGCRFGTCTVQKLAHQIYQFTDKDKDNVAPSKISPQGY-NH2; disulfide 4-9), in “in vitro [4]”, the “stability in reaction mixture with human serum” value was “stable”. This compound showed an EC50 in series [5] of 1.95 nM. For the same compound, the “intracellular cAMP concentration-increasing activity” value in series [5] (Experiment IX, addition at 10^−9 M or 10^−8 M, HEK293 cells) is given as “approximately equivalent to that of hAM(1-52) or hAM(13-52)”. For the same compound, the “detection in rat plasma” value in the series “in vivo [6]” (50 nmol/kg subcutaneous, Experiment X) was “detected in rat plasma 15 minutes after administration”. In addition, the peak concentration (Cmax) in the series “in vivo [6]” (male, Wistar, rat, in vivo, sc, 50 nmol/kg) stood at 0.679 nM.
